Assay results reported in PubChem BioAssay (NCI).
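Cultured in 96-well plates, cells were exposed to test compound for 48 hours across five concentrations. At the GI50, growth is halved. TGI is the concentration that stops growth completely.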

What was measured:
Test in all cases: NCI tumour cell line growth inhibition, 48 h
SF-268 CNS = system: SF-268 CNS
MDA-MB-435 = system: MDA-MB-435
SK-MEL-2 melanoma = system: SK-MEL-2 melanoma
K-562 leukemia = system: K-562 leukemia
EKVX NSCLC = system: EKVX NSCLC
A498 renal = system: A498 renal
HCC-2998 colon = system: HCC-2998 colon
NCI-H522 lung = system: NCI-H522 lung
NCI-H226 lung = system: NCI-H226 lung
HOP-92 NSCLC = system: HOP-92 NSCLC
MOLT-4 leukemia = system: MOLT-4 leukemia
RXF 393 renal = system: RXF 393 renal
U251 CNS = system: U251 CNS
MCF7 breast = system: MCF7 breast
SW-620 colon = system: SW-620 colon
SNB-75 CNS = system: SNB-75 CNS
OVCAR-5 ovarian = system: OVCAR-5 ovarian
SF-539 CNS = system: SF-539 CNS
786-0 renal = system: 786-0 renal
CAKI-1 renal = system: CAKI-1 renal
TK-10 renal = system: TK-10 renal
MALME-3M melanoma = system: MALME-3M melanoma
NCI-H23 lung = system: NCI-H23 lung
DU-145 prostate = system: DU-145 prostate
ACHN renal = system: ACHN renal
LOX IMVI melanoma = system: LOX IMVI melanoma
NCI-H460 lung = system: NCI-H460 lung
SK-OV-3 ovarian = system: SK-OV-3 ovarian
OVCAR-4 ovarian = system: OVCAR-4 ovarian
UACC-62 melanoma = system: UACC-62 melanoma
HT29 colon = system: HT29 colon
MDA-MB-468 breast = system: MDA-MB-468 breast
IGROV1 ovarian = system: IGROV1 ovarian
COLO 205 colon = system: COLO 205 colon
M14 melanoma = system: M14 melanoma
PC-3 prostate = system: PC-3 prostate
HL-60(TB) leukemia = system: HL-60(TB) leukemia
OVCAR-8 ovarian = system: OVCAR-8 ovarian
UACC-257 melanoma = system: UACC-257 melanoma
SK-MEL-5 melanoma = system: SK-MEL-5 melanoma
SN12C renal = system: SN12C renal
A549 NSCLC = system: A549 NSCLC
OVCAR-3 ovarian = system: OVCAR-3 ovarian
KM12 colon = system: KM12 colon
SF-295 CNS = system: SF-295 CNS
SK-MEL-28 melanoma = system: SK-MEL-28 melanoma
BT-549 breast = system: BT-549 breast
HS 578T breast = system: HS 578T breast
HOP-62 NSCLC = system: HOP-62 NSCLC
HCT-15 colon = system: HCT-15 colon

C=C1CC[C@@H]2[C@]3(C)COC(c4cn[nH]c4-c4cccc(Br)c4)O[C@@H]3CC[C@@]2(C)[C@@H]1C/C=C1/C(=O)OCC1O (stereo not given in full) showed a GI50 (SF-268 CNS) of 12.6 µM, a TGI (SF-268 CNS) of 40.3 µM and a GI50 (MDA-MB-435) of 3.4 µM. The TGI (MDA-MB-435) was 14.1 µM, the GI50 (SK-MEL-2 melanoma) was 2.55 µM and the TGI (SK-MEL-2 melanoma) was 5.59 µM. The GI50 (K-562 leukemia) was 1.93 µM, the TGI (K-562 leukemia) was 8.65 µM and the GI50 (EKVX NSCLC) was 2.15 µM. It also gave a TGI (EKVX NSCLC) of 4.81 µM, a GI50 (A498 renal) of 20.8 µM and a TGI (A498 renal) of 35.4 µM. For the same compound, the GI50 (HCC-2998 colon) was 1.87 µM, the TGI (HCC-2998 colon) was 3.53 µM and the GI50 (NCI-H522 lung) was 1.9 µM. For the same compound, the TGI (NCI-H522 lung) was 3.77 µM, the GI50 (NCI-H226 lung) was 1.62 µM and the TGI (NCI-H226 lung) was 3.09 µM. The GI50 (HOP-92 NSCLC) was 2.21 µM, the TGI (HOP-92 NSCLC) was 5.1 µM and the GI50 (MOLT-4 leukemia) was 2.29 µM. It also gave a TGI (MOLT-4 leukemia) of 18.7 µM, a GI50 (RXF 393 renal) of 1.81 µM and a TGI (RXF 393 renal) of 3.26 µM. The GI50 (U251 CNS) was 1.81 µM, the TGI (U251 CNS) was 3.36 µM and the GI50 (MCF7 breast) was 1.28 µM. The TGI (MCF7 breast) was 3.95 µM, the GI50 (SW-620 colon) was 2.22 µM and the TGI (SW-620 colon) was 5.05 µM. For the same compound, the GI50 (SNB-75 CNS) was 2.45 µM, the TGI (SNB-75 CNS) was 7.86 µM and the GI50 (OVCAR-5 ovarian) was 2.14 µM. The TGI (OVCAR-5 ovarian) was 4.72 µM, the GI50 (SF-539 CNS) was 1.74 µM and the TGI (SF-539 CNS) was 3.22 µM. It also gave a GI50 (786-0 renal) of 1.92 µM, a TGI (786-0 renal) of 3.6 µM and a GI50 (CAKI-1 renal) of 2.77 µM. It also gave a TGI (CAKI-1 renal) of 7.05 µM, a GI50 (TK-10 renal) of 5.1 µM and a TGI (TK-10 renal) of 18.9 µM. The GI50 (MALME-3M melanoma) was 1.93 µM, the TGI (MALME-3M melanoma) was 4.25 µM and the GI50 (NCI-H23 lung) was 1.84 µM. The TGI (NCI-H23 lung) was 3.62 µM, the GI50 (DU-145 prostate) was 3.08 µM and the TGI (DU-145 prostate) was 9.43 µM. For the same compound, the GI50 (ACHN renal) was 1.95 µM, the TGI (ACHN renal) was 3.97 µM and the GI50 (LOX IMVI melanoma) was 1.39 µM. The TGI (LOX IMVI melanoma) was 2.7 µM, the GI50 (NCI-H460 lung) was 2.43 µM and the TGI (NCI-H460 lung) was 6.29 µM. For the same compound, the GI50 (SK-OV-3 ovarian) was 5.8 µM, the TGI (SK-OV-3 ovarian) was 21.4 µM and the GI50 (OVCAR-4 ovarian) was 4.47 µM. The TGI (OVCAR-4 ovarian) was 30.1 µM, the GI50 (UACC-62 melanoma) was 1.55 µM and the TGI (UACC-62 melanoma) was 3.15 µM. The GI50 (HT29 colon) was 2.1 µM, the TGI (HT29 colon) was 4.82 µM and the GI50 (MDA-MB-468 breast) was 1.61 µM. For the same compound, the TGI (MDA-MB-468 breast) was 3.22 µM, the GI50 (IGROV1 ovarian) was 2.72 µM and the TGI (IGROV1 ovarian) was 6.46 µM. For the same compound, the GI50 (COLO 205 colon) was 2.18 µM, the TGI (COLO 205 colon) was 4.48 µM and the GI50 (M14 melanoma) was 2.52 µM. It also gave a TGI (M14 melanoma) of 7.22 µM, a GI50 (PC-3 prostate) of 3.07 µM and a TGI (PC-3 prostate) of 11.6 µM. The GI50 (HL-60(TB) leukemia) was 1.87 µM, the TGI (HL-60(TB) leukemia) was 7.43 µM and the GI50 (OVCAR-8 ovarian) was 1.88 µM. For the same compound, the TGI (OVCAR-8 ovarian) was 6.17 µM, the GI50 (UACC-257 melanoma) was 2.85 µM and the TGI (UACC-257 melanoma) was 9.7 µM. The GI50 (SK-MEL-5 melanoma) was 1.75 µM, the TGI (SK-MEL-5 melanoma) was 3.19 µM and the GI50 (SN12C renal) was 2.03 µM. The TGI (SN12C renal) was 4.78 µM, the GI50 (A549 NSCLC) was 3.37 µM and the TGI (A549 NSCLC) was 14.1 µM. For the same compound, the GI50 (OVCAR-3 ovarian) was 2.02 µM, the TGI (OVCAR-3 ovarian) was 3.99 µM and the GI50 (KM12 colon) was 2.44 µM. The TGI (KM12 colon) was 6.13 µM, the GI50 (SF-295 CNS) was 1.83 µM and the TGI (SF-295 CNS) was 3.99 µM. The GI50 (SK-MEL-28 melanoma) was 1.93 µM, the TGI (SK-MEL-28 melanoma) was 3.83 µM and the GI50 (BT-549 breast) was 1.44 µM. It also gave a TGI (BT-549 breast) of 3 µM, a GI50 (HS 578T breast) of 5.27 µM and a TGI (HS 578T breast) of 59.4 µM. It also gave a GI50 (HOP-62 NSCLC) of 3.78 µM, a TGI (HOP-62 NSCLC) of 13.7 µM and a GI50 (HCT-15 colon) of 1.66 µM. The TGI (HCT-15 colon) was 3.78 µM.
